# Test results from DBAASP.
# Legend:
# Test in all cases: ≥ marks a high value that may be exact or a test limit, other limits are often not marked, values filed in µg/mL are converted to µM
# [1] = tested on: Escherichia coli ATCC 25922
# [2] = tested on: Candida albicans ATCC 90028
# [3] = tested on: Staphylococcus aureus ATCC 25923
# [4] = tested on: Staphylococcus epidermidis ATCC 12228
# Staphylococcus aureus = tested on: Staphylococcus aureus
# Pseudomonas aeruginosa = tested on: Pseudomonas aeruginosa
# Escherichia coli = tested on: Escherichia coli
# [5] = tested on: Staphylococcus aureus ATCC 29213
# [6] = tested on: Pseudomonas aeruginosa ATCC 27853
Structure (SMILES),MIC [1] [µM],MIC [4] [µM],MIC (Staphylococcus aureus) [µM],MIC (Escherichia coli) [µM],also measured
CC[C@H](C)[C@H](NC(=O)CN)C(=O)NCC(=O)N[C@@H](CO)C(=O)N[C@H](C(=O)N[C@@H](CC(C)C)C(=O)NCC(=O)N[C@H](C(=O)N[C@H](C(=O)N[C@@H](C)C(=O)N[C@@H](CCCCN)C(=O)NCC(=O)N[C@@H](CC(C)C)C(=O)N1CCC[C@H]1C(=O)N[C@H](C(=O)N[C@@H](CC(C)C)C(=O)N[C@H](C(=O)N[C@@H](CO)C(=O)N[C@@H](Cc1c[nH]c2ccccc12)C(=O)N[C@H](C(=O)N[C@@H](CCCCN)C(=O)N[C@@H](CC(N)=O)C(=O)N[C@@H](CCCN=C(N)N)C(N)=O)[C@@H](C)CC)[C@@H](C)CC)[C@@H](C)O)[C@@H](C)CC)C(C)C)[C@@H](C)CC [GIGSILGVIAKGLPTLISWIKNR],20,,,,MIC [2]: 20 µM; MIC [3]: 5 µM
CC[C@H](C)[C@H](NC(=O)CN)C(=O)N[C@@H](CCCCN)C(=O)N[C@@H](CCCCN)C(=O)N[C@@H](Cc1c[nH]c2ccccc12)C(=O)N[C@@H](CC(C)C)C(=O)N[C@@H](Cc1cnc[nH]1)C(=O)N[C@@H](CCCCN)C(=O)NCC(=O)N[C@@H](CCCCN)C(=O)N[C@@H](CCCCN)C(=O)N[C@@H](Cc1ccccc1)C(=O)NCC(=O)N[C@@H](CCCCN)C(=O)N[C@@H](CCCCN)C(=O)N[C@@H](Cc1ccccc1)C(=O)N[C@H](C(=O)N[C@@H](CCCCN)C(=O)N[C@@H](CCCCN)C(=O)N[C@H](C(=O)N[C@@H](CCSC)C(=O)N[C@@H](CC(N)=O)C(=O)N[C@@H](CO)C(N)=O)[C@@H](C)CC)C(C)C [GIKKWLHKGKKFGKKFVKKIMNS],0.63,0.08,,,
CC[C@H](C)[C@H](NC(=O)CN)C(=O)N[C@@H](CCCCN)C(=O)N[C@@H](CCCCN)C(=O)N[C@@H](Cc1c[nH]c2ccccc12)C(=O)N[C@@H](CC(C)C)C(=O)N[C@@H](Cc1cnc[nH]1)C(=O)N[C@@H](CO)C(=O)N[C@@H](C)C(=O)N[C@@H](CCCCN)C(=O)N[C@@H](CCCCN)C(=O)N[C@@H](Cc1ccccc1)C(=O)NCC(=O)N[C@@H](CCCCN)C(=O)N[C@@H](CCCCN)C(=O)N[C@@H](Cc1ccccc1)C(=O)N[C@H](C(=O)N[C@@H](CCCCN)C(=O)N[C@@H](CCCCN)C(=O)N[C@H](C(=O)N[C@@H](CCSC)C(=O)N[C@@H](CC(N)=O)C(=O)N[C@@H](CO)C(N)=O)[C@@H](C)CC)C(C)C [GIKKWLHSAKKFGKKFVKKIMNS],0.63,0.16,,,
CC[C@H](C)[C@H](NC(=O)CN)C(=O)N[C@@H](CCCCN)C(=O)N[C@@H](CCCCN)C(=O)N[C@@H](Cc1c[nH]c2ccccc12)C(=O)N[C@@H](CC(C)C)C(=O)N[C@@H](Cc1cnc[nH]1)C(=O)N[C@@H](CO)C(=O)N[C@@H](C)C(=O)N[C@@H](CCCCN)C(=O)N[C@@H](CCCCN)C(=O)N[C@@H](Cc1ccccc1)C(=O)N1CCC[C@H]1C(=O)N[C@@H](CCCCN)C(=O)N[C@@H](CCCCN)C(=O)N[C@@H](Cc1ccccc1)C(=O)N[C@H](C(=O)N[C@@H](CCCCN)C(=O)N[C@@H](CCCCN)C(=O)N[C@H](C(=O)N[C@@H](CCSC)C(=O)N[C@@H](CC(N)=O)C(=O)N[C@@H](CO)C(N)=O)[C@@H](C)CC)C(C)C [GIKKWLHSAKKFPKKFVKKIMNS],1.25,0.31,,,
CC[C@H](C)[C@H](NC(=O)CN)C(=O)N[C@@H](CCCCN)C(=O)N[C@@H](CCCCN)C(=O)N[C@@H](Cc1c[nH]c2ccccc12)C(=O)N[C@@H](CC(C)C)C(=O)N[C@@H](Cc1cnc[nH]1)C(=O)N[C@@H](CO)C(=O)N1CCC[C@H]1C(=O)N[C@@H](CCCCN)C(=O)N[C@@H](CCCCN)C(=O)N[C@@H](Cc1ccccc1)C(=O)NCC(=O)N[C@@H](CCCCN)C(=O)N[C@@H](CCCCN)C(=O)N[C@@H](Cc1ccccc1)C(=O)N[C@H](C(=O)N[C@@H](CCCCN)C(=O)N[C@@H](CCCCN)C(=O)N[C@H](C(=O)N[C@@H](CCSC)C(=O)N[C@@H](CC(N)=O)C(=O)N[C@@H](CO)C(N)=O)[C@@H](C)CC)C(C)C [GIKKWLHSPKKFGKKFVKKIMNS],2.5,1.25,,,
CC[C@H](C)[C@H](NC(=O)CN)C(=O)N[C@@H](CCCCN)C(=O)N[C@@H](CCCCN)C(=O)N[C@@H](Cc1c[nH]c2ccccc12)C(=O)N1CCC[C@H]1C(=O)N[C@@H](Cc1cnc[nH]1)C(=O)N[C@@H](CCCCN)C(=O)N1CCC[C@H]1C(=O)N[C@@H](CCCCN)C(=O)N[C@@H](CCCCN)C(=O)N[C@@H](Cc1ccccc1)C(=O)NCC(=O)N[C@@H](CCCCN)C(=O)N[C@@H](CCCCN)C(=O)N[C@@H](Cc1ccccc1)C(=O)N[C@H](C(=O)N[C@@H](CCCCN)C(=O)N[C@@H](CCCCN)C(=O)N[C@H](C(=O)N[C@@H](CCSC)C(=O)N[C@@H](CC(N)=O)C(=O)N[C@@H](CO)C(N)=O)[C@@H](C)CC)C(C)C [GIKKWPHKPKKFGKKFVKKIMNS],10,5,,,
CC[C@H](C)[C@H](N)C(=O)N[C@@H](CC(N)=O)C(=O)N[C@@H](Cc1c[nH]c2ccccc12)C(=O)N[C@@H](CC(C)C)C(=O)N[C@@H](CCCCN)C(=O)N[C@@H](CC(C)C)C(=O)NCC(=O)N[C@@H](CCCCN)C(=O)N[C@@H](CCCCN)C(=O)N[C@H](C(=O)N[C@@H](CC(C)C)C(=O)NCC(=O)N[C@@H](C)C(=O)N[C@@H](CC(C)C)C(N)=O)[C@@H](C)CC [INWLKLGKKILGAL],,,15.5,,MIC (Pseudomonas aeruginosa): 86.6 µM
CC(C)C[C@H](NC(=O)CNC(=O)[C@H](C)NC(=O)[C@H](CC(C)C)NC(=O)[C@H](CCCCN)NC(=O)[C@H](CCCCN)NC(=O)[C@H](C)NC(=O)[C@H](CC(C)C)NC(=O)CNC(=O)[C@H](C)NC(=O)[C@H](Cc1c[nH]c2ccccc12)NC(=O)[C@H](CCCCN)NC(=O)[C@H](CCCCN)NC(=O)[C@H](C)NC(=O)[C@H](CC(C)C)NC(=O)CNC(=O)[C@H](C)NC(=O)[C@H](CC(C)C)NC(=O)[C@H](CCCCN)NC(=O)[C@@H](N)CCCCN)C(=O)N[C@@H](C)C(N)=O [KKLAGLAKKWAGLAKKLAGLA],,,7.49,3.74,MIC (Pseudomonas aeruginosa): 7.49 µM
CC[C@H](C)[C@H](NC(=O)[C@H](CCCN=C(N)N)NC(=O)[C@H](CCC(N)=O)NC(=O)[C@@H](NC(=O)[C@H](C)NC(=O)[C@H](CCCN=C(N)N)NC(=O)[C@@H](N)CCCCN)C(C)C)C(=O)N[C@@H](CCCCN)C(=O)N[C@@H](CC(=O)O)C(=O)N[C@@H](Cc1ccccc1)C(=O)N[C@@H](CC(C)C)C(=O)N[C@@H](CCCN=C(N)N)C(=O)O [KRAVQRIKDFLR],5,,,,MIC [5]: 20 µM; MIC [2]: ≥ 40 µM; MIC [6]: 10 µM
C[C@H](NC(=O)[C@H](C)NC(=O)[C@H](CCCCN)NC(=O)[C@H](C)NC(=O)[C@H](Cc1ccccc1)NC(=O)[C@H](Cc1c[nH]c2ccccc12)NC(=O)[C@H](CCCCN)NC(=O)[C@H](Cc1c[nH]c2ccccc12)NC(=O)[C@H](CCCCN)NC(=O)[C@H](CCCCN)NC(=O)[C@H](C)NC(=O)[C@H](Cc1c[nH]c2ccccc12)NC(=O)[C@@H](N)CCCCN)C(=O)N[C@@H](Cc1c[nH]c2ccccc12)C(=O)N[C@@H](CCCCN)C(=O)N[C@@H](Cc1c[nH]c2ccccc12)C(=O)N[C@@H](Cc1ccc(O)cc1)C(=O)N[C@@H](CCCCN)C(=O)N[C@@H](CCCCN)C(N)=O [KWAKKWKWFAKAAWKWYKK],,,> 38.9,> 38.9,
CC[C@H](C)[C@H](NC(=O)[C@H](Cc1ccccc1)NC(=O)[C@H](CO)NC(=O)[C@H](CCCCN)NC(=O)[C@H](Cc1c[nH]c2ccccc12)NC(=O)[C@@H](N)CCCCN)C(=O)N[C@@H](CCCCN)C(=O)N[C@@H](CCCCN)C(=O)N[C@@H](CC(C)C)C(=O)N[C@H](C(=O)N[C@@H](CC(C)C)C(=O)N[C@@H](CCCCN)C(=O)N[C@@H](Cc1ccccc1)C(=O)N[C@@H](CC(C)C)C(=O)N[C@@H](Cc1cnc[nH]1)C(=O)N[C@@H](CO)C(=O)N[C@@H](CCCCN)C(=O)N[C@@H](CCCCN)C(=O)N[C@@H](CCCCN)C(=O)N[C@@H](Cc1ccccc1)C(N)=O)[C@@H](C)O [KWKSFIKKLTLKFLHSKKKF],,,,,MIC (Pseudomonas aeruginosa): > 19.7 µM
CC(C)C[C@H](NC(=O)[C@H](CCCCN)NC(=O)[C@@H]1CSSC[C@H](NC(=O)[C@H](CC(C)C)NC(=O)[C@H](CCCCN)NC(=O)[C@H](CC(C)C)NC(=O)[C@H](CC(C)C)NC(=O)[C@H](CCCCN)NC(=O)[C@H](CCCCN)NC(=O)[C@@H](N)CC(C)C)C(=O)N[C@@H](CCCCN)C(=O)N[C@@H](CCCCN)C(=O)N[C@@H](CC(C)C)C(=O)N1)C(=O)N[C@@H](C)C(=O)NCC(=O)O [LKKLLKLCKKLCKLAG],5,,,20,MIC [5]: > 40 µM
CC[C@H](C)[C@H](NC(=O)[C@H](Cc1c[nH]c2ccccc12)NC(=O)[C@H](CCCCN)NC(=O)[C@@H]1CCCN1C(=O)[C@H](CC(C)C)NC(=O)[C@H](CCCCN)NC(=O)CNC(=O)[C@@H](NC(=O)[C@@H](NC(=O)[C@H](CO)NC(=O)[C@@H](NC(=O)[C@@H](NC(=O)[C@H](CCCCN)NC(=O)[C@H](CCC(N)=O)NC(=O)[C@H](C)NC(=O)[C@@H](N)CCSC)[C@@H](C)CC)[C@@H](C)CC)[C@@H](C)O)[C@@H](C)CC)C(=O)N[C@H](C(=O)N[C@@H](CCCCN)C(=O)N[C@H](C(=O)N[C@H](C(=O)N[C@@H](CC(N)=O)C(=O)N[C@@H](CCCCN)C(=O)N[C@@H](Cc1ccccc1)C(=O)N[C@H](C(=O)N[C@@H](CCCCN)C(=O)N[C@@H](CCCCN)C(=O)O)[C@@H](C)O)C(C)C)[C@@H](C)O)[C@@H](C)CC [MAQKIISTIGKLPKWIIKTVNKFTKK],,,20.8,3.4,
